The values below come from patent EP2951180B1, “2,6,7,8 SUBSTITUTED PURINES AS HDM2 INHIBITORS” (Merck Sharp & Dohme Corp., priority 2013, dated 2014).

Each structure is given as a SMILES string. pIC50: −log10 of the molar value. Like-named read-outs stand apart in the source and are kept apart here.

As a reminder, the pIC50 is the negative decadic logarithm of the IC50, by convention in mol/L.

For the assay, the target named is T1, HDM2 (Homo sapiens, UniProt Q00987).
T1 construct: Thioredoxin (N); made in house; host or cells: E. coli strain BL21(DE3)Rosetta
In words: HDM2 FRET assay (inhibition of binding of FITC labeled p53-pocket peptide to HDM2). In short, it runs like this: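 Displacement of FITC-p53 peptide (3 nM) from His-tagged HDM2 (0.5 nM) is measured by Tb-to-fluorescein FRET in PBS, 0.01% BSA, 0.01% Tween-20. IC50 values derive from 10-point curves.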

[1] abbreviates: 0.5 nM HDM2 (residues 17 to 125), 3nM peptide, two hour incubation at room temperature, read-out: FRET IC50.

T1 sequence (Q00987 17-125): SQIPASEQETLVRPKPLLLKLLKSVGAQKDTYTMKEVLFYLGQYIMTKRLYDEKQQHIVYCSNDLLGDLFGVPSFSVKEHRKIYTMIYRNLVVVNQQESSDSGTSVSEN

For `Cc1cccc(-c2nc3nc(C(=O)O)nc(N[C@H](C)C4CCC4)c3n2C[C@H]2CC[C@@H](C(F)(F)F)CC2)c1` [Example 18.29, 6-{[(1R)-1-cyclobutylethyl]amino}-8-(3-methylphenyl)-7-{[cis-4-(trifluoromethyl)cyclohexyl]methyl}-7H-purine-2-carboxylic acid], for the setting “Table 18, read-out: FRET IC50”, the pIC50 was 6.17. In the case of `C[C@H](Nc1nc2nc(-c3noc(=O)[nH]3)nc(N[C@H](C)C3CCC3)c2n1C[C@H]1CC[C@H](C)CC1)c1cccc(F)c1` [Example 11.106, 3-(6-{[(1R)-1-cyclobutylethyl]amino}-8-{[(1S)-1-(3-fluorophenyl)ethyl]amino}-7-[(trans-4-methylcyclohexyl)methyl]-7H-purin-2-yl)-1,2,4-oxadiazol-5(2H)-one], the pIC50 (Table 11, read-out: FRET IC50) is 8.49.

With `Cc1cccc(-c2nc3nc(C(=O)O)nc(N[C@H](C)C4CCCC4)c3n2Cc2ccc(Cl)cc2)c1` [Example 6.3, 7-(4-chlorobenzyl)-6-{[(1R)-1-cyclopentylethyl]amino}-8-(3-methylphenyl)-7H-purine-2-carboxylic acid], the pIC50 (Table 6, read-out: FRET IC50) was 7.50. For `Cc1nnc([C@@H]2COCCN2c2nc3nc(-c4noc(=O)[nH]4)nc(-c4cccc(Cl)c4)c3n2C[C@H]2CC[C@H](C)CC2)o1` [Example 16.138, 3-{6-(3-chlorophenyl)-7-[(trans-4-methylcyclohexyl)methyl]-8-[(3S)-3-(5-methyl-1,3,4-oxadiazol-2-yl)morpholin-4-yl]-7H-purin-2-yl}-1,2,4-oxadiazol-5(4H)-one], the pIC50 under setting [1] is 7.10. Take `C[C@@H](Nc1nc(-c2noc(=O)[nH]2)nc2nc(C3(c4nccs4)CC3)n(C[C@H]3CC[C@H](C)CC3)c12)C1CCC1` [Example 22.59, 3-(6-{[(1R)-1-cyclobutylethyl]amino}-7-[(trans-4-methylcyclohexyl)methyl] -8-[1-(1,3-thiazol-2-yl)cyclopropyl]-7H-purin-2-yl)-1,2,4-oxadiazol-5(4H)-one]: the pIC50 (Table 22, read-out: FRET IC50) is 8.64.

As for `C[C@@H](Nc1nc(C(=O)O)nc2nc(NC3CCCCC3)n(Cc3ccc(C(F)(F)F)cc3)c12)C1CCC1` [Example 9.12, 6-{[(1R)-1-cyclobutylethyl]amino}-8-(cyclohexylamino)-7-[4-(trifluoromethyl)benzyl]-7H-purine-2-carboxylic acid], the pIC50 (Table 9, read-out: FRET IC50) was 8.12.

Take `Cc1cccc(-c2nc3nc(C(=O)O)nc(N4CCC[C@@H]4C4CCC4)c3n2Cc2ccc(C(F)(F)F)cc2)c1` [Example 7.8, 6-[(2R)-2-cyclobutylpyrrolidin-1-yl]-8-(3-methylphenyl)-7-[4-(trifluoromethyl)benzyl]-7H-purine-2-carboxylic acid]: under “Table 7, read-out: FRET IC50”, the pIC50 is 6.73.

As for `C[C@@H](Nc1nc(-c2noc(=O)[nH]2)nc2nc(N3CCC[C@H]4CCCC[C@@H]43)n(C[C@H]3CC[C@H](C)CC3)c12)C1CCC1` [Example 11.60, 3-(6-{[(1R)-1-cyclobutylethyl]amino}-7-[(trans-4-methylcyclohexyl)methyl]-8-[(4aR,8aS)-octahydroquinolin-1(2H)-yl]-7H-purin-2-yl)-1,2,4-oxadiazol-5(4H)-one], the negative logarithm of the IC50 (pIC50) (Table 11, read-out: FRET IC50) is 7.98. In the case of `COC1(c2nc3nc(-c4n[nH]c(=O)o4)nc(-c4cncc(Cl)c4)c3n2C[C@H]2CC[C@H](C)CC2)CCCCC1C` (relative stereo) [Example 23.64, 5-{6-(5-chloropyridin-3-yl)-8-(1-methoxy-2-methylcyclohexyl)-7-[(trans-4-methylcyclohexyl)methyl] -7H-purin-2-yl}-1,3,4-oxadiazol-2(3H)-one], for the setting “Table 23, read-out: FRET IC50”, the pIC50 was 8.06. Consider `C[C@@H](Nc1nc(N2CCC[C@@H]2C(=O)O)nc2nc(N3CCOC[C@H]3c3ccccc3)n(C[C@H]3CC[C@H](C)CC3)c12)C1CCC1` [Example 13.4, 1-(6-{[(1R)-1-cyclobutylethyl]amino}-7-[(trans-4-methylcyclohexyl)methyl]-8-[(3R)-3-phenylmorpholin-4-yl]-7H-purin-2-yl)-D-proline], for which the pIC50 under setting [1] was 7.02. Same read-out and setting: under `CC(C)c1cc(-c2nc3nc(-c4noc(=O)[nH]4)nc(N[C@H](C)C4CCC4)c3n2C[C@H]2CC[C@H](C)CC2)[nH]c(=O)c1` [Example 15.25, 6-[6-{[(1R)-1-cyclobutylethyl]amino}-7-[(trans-4-methylcyclohexyl)methyl]-2-(5-oxo-2,5-dihydro-1,2,4-oxadiazol-3-yl)-7H-purin-8-yl]-4-(1-methylethyl)pyridin-2(1H)-one] stands 8.17. Consider `C[C@@H]1CN(C(=O)C2CC2)CCN1c1nc2nc(-c3noc(=O)[nH]3)nc(N[C@H](C)C3CCC3)c2n1C[C@H]1CC[C@H](C)CC1` [Example 17.16, 3-(6-{[(1R)-1-cyclobutylethyl]amino}-8-[(2R)-4-(cyclopropylcarbonyl) -2-methylpiperazin-1-yl]-7-[(trans-4-methylcyclohexyl)methyl]-7H-purin-2-yl)-1,2,4-oxadiazol-5(4H)-one], for which the negative-log IC50 (pIC50) (Table 17.2, read-out: FRET IC50) is 8.91.

As to `C[C@@H](Nc1nc(C(=O)O)nc2nc(NC(=O)c3ccccc3)n(Cc3ccc(C(F)(F)F)cc3)c12)C1CCC1` [Example 9.38], the pIC50 (Table 9, read-out: FRET IC50) is 6.18. As to `C[C@@H](Nc1nc(C(=O)O)nc2nc(N(C)c3ccccc3)n(Cc3ccc(C(F)(F)F)cc3)c12)C1CCC1` [Example 9.2, 6-{[(1R)-1-cyclobutylethyl]amino}-8-[methyl(phenyl)amino]-7-[4-(trifluoromethyl)benzyl]-7H-purine-2-carboxylic acid], the pIC50 (Table 9, read-out: FRET IC50) was 7.68.

For `C[C@@H](Nc1nc(C(=O)O)nc2nc(C3(c4ccccc4)CC3)n(Cc3ccc(C(F)(F)F)cc3)c12)C1CCC1` [Example 20.3, 6-{[(1R)-1-cyclobutylethyl]amino}-8-(1-phenylcyclopropyl)-7-[4-(trifluoromethyl)benzyl]-7H-purine-2-carboxylic acid], under “Table 20, read-out: FRET IC50”, the pIC50 is 8.07. With `C[C@@H](Nc1nc(C(=O)O)nc2nc(N3CCCC3c3cccc(F)c3)n(Cc3ccc(C(F)(F)F)cc3)c12)C1CCC1` (stereo partly drawn) [Example 9.60, 6-{[(1R)-1-cyclobutylethyl]amino}-8-[2-(3-fluorophenyl)pyrrolidin-1-yl]-7-[4-(trifluoromethyl)benzyl]-7H-purine-2-carboxylic acid], where the note is “Table 9, read-out: FRET IC50”, the pIC50 was 7.99. On to `C[C@@H](Nc1nc(C(=O)O)nc2nc(C3CCCCN3)n(Cc3ccc(C(F)(F)F)cc3)c12)C1CCC1` (stereo partly drawn) [Example 10.24, 6-(((R)-1-Cyclobutylethyl)amino)-8-(piperidin-2-yl)-7-(4-(trifluoromethyl)benzyl)-7H-purine-2-carboxylic acid], for which the pIC50 (Table 10, read-out: FRET IC50) was 7.02. For the molecule `C[C@@H](Nc1nc(C(=O)O)nc2nc(N3CCCCC3)n(Cc3ccc(C(F)(F)F)cc3)c12)C1CCC1` [Example 9.11, 6-{[(1R)-1-cyclobutylethyl]amino}-8-piperidin-1-yl-7-[4-(trifluoromethyl)benzyl]-7H-purine-2-carboxylic acid], under “Table 9, read-out: FRET IC50”, the pIC50 is 7.75.

For the molecule `C[C@@H](Nc1nc(C(=O)O)nc2nc(N3CCCC3c3ccccc3)n(Cc3ccc(C(F)(F)F)cc3)c12)C1CCC1` (stereo partly drawn) [Example 9.52, 6-{[(1R)-1-cyclobutylethyl]amino}-8-(2-phenylpyrrolidin-1-yl)-7-[4-(trifluoromethyl)benzyl]-7H-purine-2-carboxylic acid], the pIC50 (Table 9, read-out: FRET IC50) was 7.50. In turn, `C[C@@H](Nc1nc(C(=O)O)nc2nc(N3C4CCCC3CC4)n(C[C@H]3CC[C@H](C)CC3)c12)C1CCC1` [Example 11.26, 8-(8-azabicyclo[3.2.1]oct-8-yl)-6-{[(1R)-1-cyclobutylethyl]amino}-7-[(trans-4-methylcyclohexyl)methyl]-7H-purine-2-carboxylic acid] had a pIC50 (FRET IC50) of 8.45.

With `C[C@@H](Nc1nc(-c2noc(=O)[nH]2)nc2nc(N3CCCC3C(C)(C)C)n(C[C@H]3CC[C@H](C)CC3)c12)C1CCC1` (stereo partly drawn) [Example 11.36, 3-{8-(2-tert-butylpyrrolidin-1-yl)-6-{[(1R)-1-cyclobutylethyl]amino}-7-[(trans-4-methylcyclohexyl)methyl]-7H-purin-2-yl}-1,2,4-oxadiazol-5(2H)-one], the pIC50 (Table 11, read-out: FRET IC50) is 8.41.

Regarding `C[C@@H](Nc1nc(C(=O)O)nc2nc(C3CCCC3c3ccccc3)n(Cc3ccc(C(F)(F)F)cc3)c12)C1CCC1` (single isomer, unassigned) [Example 21.5], the pIC50 (Table 21, read-out: FRET IC50) is 7.58. For `C[C@@H](Nc1nc(NCCO)nc2nc(N3CCOC[C@H]3c3ccccc3)n(C[C@H]3CC[C@H](C)CC3)c12)C1CCC1` [Example 13.1, 2-((6-(((R)-1-cyclobutylethyl)amino)-7-((trans-4-methylcyclohexyl)methyl)-8-((R)-3-phenylmorpholino)-7H-purin-2-yl)amino)ethanol], the pIC50 under setting [1] was 6.05. As to `Cc1cccc(-c2nc3nc(C(=O)O)nc(NC(C)C4CCCC4)c3n2Cc2ccc(C(F)(F)F)cc2)c1` (centres unmarked) [Example 6.32, 6-[(1-cyclopentylethyl)amino]-8-(3-methylphenyl)-7-[4-(trifluoromethyl)benzyl]-7H-purine-2-carboxylic acid], under “Table 6, read-out: FRET IC50”, the pIC50 is 6.43. On to `CCCCN(C)c1nc(C(=O)O)nc2nc(-c3cccc(C)c3)n(Cc3ccc(C(F)(F)F)cc3)c12` [Example 6.83, 6-[butyl(methyl)amino]-8-(3-methylphenyl)-7-[4-(trifluoromethyl)benzyl]-7H-purine-2-carboxylic acid], for which the pIC50 (Table 6, read-out: FRET IC50) is 6.08. Take `COC(=O)[C@@H]1COCCN1c1nc2nc(-c3noc(=O)[nH]3)nc(-c3cccc(Cl)c3)c2n1C[C@H]1CC[C@H](C)CC1` [Example 16.48, methyl (3S)-4-[6-(3-chlorophenyl)-7-[(trans-4-methylcyclohexyl)methyl]-2-(5-oxo-4,5-dihydro-1,2,4-oxadiazol-3-yl)-7H-purin-8-yl]morpholine-3-carboxylate]: under setting [1], the pIC50 was 7.05.
